Reference: patent US20250305953A1, “LIGHT-EMITTING RADICAL CATION PROBE IN SITU GENERATED BY ACID INDUCTION, AND PREPARATION THEREFOR AND APPLICATION THEREOF” (SOUTH CHINA UNIVERSITY OF TECHNOLOGY, priority 2022, published 2025)

Legend:
[1] = H&E staining and hepatorenal index analysis; format: in vivo, Balb/c nude mice
Procedure: 2 hours after gavage, blood (approximately 500 μL) was collected through the ocular fundus venous plexus and stored in an icebox 20 minutes before centrifugation at 3,500 r.p.m. to prevent clotting. Roche Cobas E602 electrochemical light-emitting immunoassay analyzer was used to test and analyze total protein (TP), albumin (ALB), alanine aminotransferase (ALT), aspartate aminotransferase (AST), creatinine (CREA), carbon dioxide (CO2), uric acid (UA), urea (UREA) in serum samples (200 μL).
All tissues were fixed with 4% PFA, dehydrated with an ethanol solution, embedded with paraffin, and cut into […] coronal and low-temperature sections for hematoxylin and eosin (H&E) staining. Paraffin was removed by xylene washing. Then, the sections were incubated with hematoxylin and eosin for 4 min and washed with distilled water. Stained sections were examined by using the Nikon ECLIPSE 80i microscope.

[2] = In vivo imaging with laparotomy; design: species or system Balb/c nude mice; settings: dissected after imaging
Excerpt: The mice were anesthetized beforehand, and the gastrointestinal tract was then exposed by a single incision in the abdomen of the mice.

[3] = compared with P3^⋅+
Procedure: Animal experiments: male eight-week-old Balb/c nude mice were purchased from Guangzhou Yancheng Biotechnology Co. Ltd. The mice were adaptively housed for one week and fasted for 24 hours before gavage.
Subsequently, the in vivo fluorescence imaging was performed at room temperature by using the small animal imaging instrument Bruker MI SE 721. The imaging was performed every 10 min until 60 min, every 30 min until 120 min, and then every 60 min until 180 min. Two imaging steps were performed sequentially: 590 nm/700 nm, with exposure time being 60 s, and white light exposure time being 0.175 s. […] In the same conditions, quantitative analysis of fluorescence imaging was performed by using the instrument Bruker MI SE 721. The quantitative analysis of fluorescence was performed on the gastric signals in the mice at all the time points above. The mean value of fluorescence at three sites in the gastric region at 0 min was taken as I0, and the mean value of fluorescence at three sites in the gastric region at other time points was taken as I. A semi-quantitative analysis of the change of the gastric signals in the mice was performed by means of the fluorescence ratio (I/I0). In addition, the mice were euthanized at different time points, and the gastrointestinal tracts of the mice were dissected out for white light photography.

[4] = Procedure: 30 μL of DMSO stock solution (200 mM) of the compound P6 (4-(piperidine-1-methylene)-2,5-dimethyl-3-hydroxymethylene-^1H-pyrrole) was added to 2970 μL of the acidic buffer solution (pH=2.0-3.0).
After being mixed well, tests of the time-dependent ultraviolet-visible absorption spectrum and fluorescence spectrum were performed (2 h).

| Structure (SMILES) | H&E histology of major visceral organs (stomach, liver, spleen, kidney, lung, heart) ([1]; 2 hours after gavage of 1.5 mg in 70 μL water, compared with control group) | biocompatibility ([1]; generated in situ in the stomach, conclusion) | fluorescence of visceral organs other than the gastrointestinal tract [2] | gastrointestinal imaging effect [3] | time for conversion into the radical cation ([4]; acidic buffer solution pH=2.0-3.0, atmosphere of air) [min] | conversion efficiency ([4]; compared with P3) | light emission ([4]; compared with P3) |
| --- | --- | --- | --- | --- | --- | --- | --- |
| Cc1cc(CO)c(C)n1-c1ccccc1 [P3, 2,5-dimethyl-3-hydroxymethylene-1-phenyl-^1H-pyrrole] | no obvious injury or inflammatory lesion | good biocompatibility | without any fluorescence signal |  |  |  |  |
| Cc1[nH]c(C)c(CN2CCCCC2)c1CO [P6, 4-(piperidine-1-methylene)-2,5-dimethyl-3-hydroxymethylene-^1H-pyrrole] |  |  |  | not as good as that of P3^⋅+ | ≤ 30 | lower conversion efficiency | weaker light emission |
